Test results as given in article PMC11091967, “Silicon-Rhodamine Functionalized Evocalcet Probes Potently and Selectively Label Calcium Sensing Receptors In Vitro, In Vivo, and Ex Vivo” (ACS Pharmacology & Translational Science, 2024).

Tests used:
[1] = test system: hair cells of the neuromasts within the lateral line organ; assay: In vivo labeling of neuromasts in zebrafish larvae; design: species or system zebrafish (Danio rerio); details: 4–6 dpf larvae; for fold increase in fluorescence intensity within the neuromasts: co-labeling with DiAsp; for normalized fluorescence of the neuromasts to the background fluorescence, mean and standard deviation: neuromasts identified with DiAsp
Procedure: (§1) For the neuromast labeling experiments, wild-type 4–6 days post fertilization (dpf) zebrafish larvae were incubated in 200 μL of E3 medium containing different doses of the SiR probes (500–5000 nM), 2.5 μM 4-(4-diethylaminostyryl)-1-methyl-pyridinium-iodid (DiAsp, Sigma, D3418), which specifically labels hair cells in the lateral line in 0.5% DMSO for 30 min (35). Next, washing and anesthesia were achieved by placing the larvae in a 35 mm imaging dish (MolBiTec, Imaging dish 1.5) which contained 500 μL of E3 medium with 168 mg/L MS-222 (Tricaine Mehanesulfonate, Sigma) for 10 min. After removing the solution, fish were side-embedded in the imaging dish using 500 μL of 0.75% low-melting temperature agarose (Sigma, A4018). Wide-field imaging was done using the Zeiss Axio Observer fluorescence microscope (LD A-Plan 10× objective, NA = 0.25), and confocal imaging was done using a Zeiss LSM 800 confocal fluorescence microscope (LD LCI Plan-Apochromat 25× objective, NA = 0.8).

[2] = Spectrofluorometric fluorescence in PBS and effect of pH; assay type: physicochemical; details: 750 nM in PBS, peak fluorescence at 670
Procedure: Spectrofluorometric measurements were carried out by using the Agilent Cary Eclipse instrument. The voltage of the photomultiplier tube (PMT) was set to 600 for EvoSiR4 and EvoSiR6, and for 500 for SiR (4). Fluorescence of the probes was measured at concentrations ranging from 30 to 3000 nM in PBS containing various amounts of bovine serum albumin (BSA) (Sigma, A7906). Quenching experiments for the calculation of BSA binding were performed by adding a 1:1 molar ratio of tannic acid dissolved in ddH2O (Sigma, 403040) to the solution prior to measuring fluorescence.

human CaSR = biological target: T1, human CaSR (Homo sapiens, UniProt P41180); assay: FLIPR-based functional CaSR calcium assay in HCAR cells; assay type: cell-based; details: 5 min incubation of HCAR cells, 0.1% BSA
T1 construct: host or cells: CCL39 hamster lung fibroblasts stably transfected (HCAR), Geneticin selection
T1 sequence (P41180 20-1078): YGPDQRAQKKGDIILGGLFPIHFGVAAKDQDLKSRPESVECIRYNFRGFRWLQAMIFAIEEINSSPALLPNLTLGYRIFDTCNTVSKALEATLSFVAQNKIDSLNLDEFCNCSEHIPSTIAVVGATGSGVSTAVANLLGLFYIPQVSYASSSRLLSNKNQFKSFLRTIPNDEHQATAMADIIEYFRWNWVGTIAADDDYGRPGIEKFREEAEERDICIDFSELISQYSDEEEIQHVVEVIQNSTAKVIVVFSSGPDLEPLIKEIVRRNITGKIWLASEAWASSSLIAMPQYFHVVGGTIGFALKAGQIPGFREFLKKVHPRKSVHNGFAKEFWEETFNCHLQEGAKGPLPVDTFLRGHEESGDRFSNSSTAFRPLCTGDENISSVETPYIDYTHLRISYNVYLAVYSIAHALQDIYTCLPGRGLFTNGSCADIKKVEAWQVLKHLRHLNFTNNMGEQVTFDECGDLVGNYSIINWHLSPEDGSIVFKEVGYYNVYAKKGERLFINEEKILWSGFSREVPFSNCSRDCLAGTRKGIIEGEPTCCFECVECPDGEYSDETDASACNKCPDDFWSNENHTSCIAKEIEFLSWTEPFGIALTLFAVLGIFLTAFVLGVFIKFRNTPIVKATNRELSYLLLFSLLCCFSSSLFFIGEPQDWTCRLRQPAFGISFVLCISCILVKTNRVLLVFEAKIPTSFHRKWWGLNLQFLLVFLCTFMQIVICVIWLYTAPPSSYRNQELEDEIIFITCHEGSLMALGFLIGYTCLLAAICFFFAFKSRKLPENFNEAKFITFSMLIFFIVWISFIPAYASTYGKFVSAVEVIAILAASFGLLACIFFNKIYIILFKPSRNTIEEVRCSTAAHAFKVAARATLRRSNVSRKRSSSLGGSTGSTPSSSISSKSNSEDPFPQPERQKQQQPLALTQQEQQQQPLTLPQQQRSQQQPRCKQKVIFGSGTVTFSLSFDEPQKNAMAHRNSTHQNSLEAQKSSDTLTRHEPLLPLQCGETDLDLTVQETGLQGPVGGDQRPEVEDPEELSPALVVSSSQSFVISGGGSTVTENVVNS

zebrafish larvae = assay: Zebrafish startle reflex, tolerability and brain penetration with bath-applied probe; assay type: in vivo, zebrafish (Danio rerio)
Procedure: as §1
For the behavioral analysis, wild-type 4–6 dpf zebrafish larvae were placed individually into custom-built sound delivery system described in a previous publication.[36] For acoustic stimulation, we used a 90 dB stimulus and recorded the subsequent behavioral responses using a high-speed camera (xiQ USB3 vision) at a frame rate of 500 fps using custom scripts written in Python. The camera was placed 30 cm above the sound delivery system. The latency of the startle reflex was quantified manually by using an LED flash (780 nm wavelength) in parallel with the time of stimulus delivery. Escape responses were quantified manually, where we considered a short-latency startle response between 2 and 16 ms and a long-latency startle response above 16 ms.

CYP2D6 = test system: CYP2D6; design: method as in PMID 29724589; details: cited from earlier work

Cc1cc(C(=O)NCCCCNC(=O)Cc2ccc(N3CC[C@H](N[C@H](C)c4cccc5ccccc45)C3)cc2)ccc1C1=C2C=CC(=[N+](C)C)C=C2[Si](C)(C)c2cc(N(C)C)ccc21 [EvoSiR4]
fold increase in fluorescence intensity within the neuromasts [1]: 5.7 fold
normalized fluorescence of the neuromasts to the background fluorescence, mean and standard deviation [1]: 5.71 ± 4.4
decrease in fluorescence at pH above 10 [2]: 50%
EC50 (human CaSR; EC50, 1× wash, 1× wash): 0.38 ± 0.24 µM
EC50 (human CaSR; EC50, 3× wash, 3× wash): 0.62 ± 0.31 µM
EC50 (human CaSR; EC50, 5× wash, 5× wash): 0.33 ± 0.21 µM
EC50 (human CaSR; EC50, no wash, no wash): 0.037 ± 0.008 µM
effect on startle responses (percentage elicited, ratio of short-latency escapes, latency) (zebrafish larvae; bath-applied 5 and 10 μM, acoustic stimulation): no significant difference
entry into zebrafish CNS (zebrafish larvae; bath-applied, Tol056 strain, confocal microscopy): does not enter the zebrafish CNS
concentration beyond which lethal (zebrafish larvae; bath-applied, larvae): > 20 µM
concentration up to which no effect on basic locomotion capabilities (zebrafish larvae; bath-applied, larvae): up to 10 μM

Cc1cc(C(=O)NCCCCCCNC(=O)Cc2ccc(N3CC[C@H](N[C@H](C)c4cccc5ccccc45)C3)cc2)ccc1C1=C2C=CC(=[N+](C)C)C=C2[Si](C)(C)c2cc(N(C)C)ccc21 [EvoSiR6]
fold increase in fluorescence intensity within the neuromasts [1]: 5.6 fold
normalized fluorescence of the neuromasts to the background fluorescence, mean and standard deviation [1]: 5.6 ± 3.1

C[C@@H](N[C@H]1CCN(c2ccc(CC(=O)O)cc2)C1)c1cccc2ccccc12 [evocalcet]
CYP2D6 inhibition (CYP2D6): no direct CYP2D6 inhibition
